Reference: patent US8759049B2, “Method for the production of a fermentation product from a sugar hydrolysate” (Iogen Energy Corporation, priority 2010, dated 2014)

Experiments:
Type in all cases: cell-based
[1] = tested on: contaminated yeast cream (Saccharomyces cerevisiae yeast strain with bacterial contaminants); test: Yeast fermentation performance in lignocellulosic hydrolysate after treatment of contaminated yeast cream
Experimental: Yeast fermentation performance was evaluated by inoculating the contaminated control yeast, acid-treated yeast and combination acid-chlorine dioxide treated yeast creams (treated as set forth in Example 1.1) into 400 mL of lignocellulosic hydrolysate. The lignocellulosic hydrolysate was produced as set forth in Example 1.1. Prior to inoculation, the media was sparged with pure CO2 for two minutes to ensure anaerobicity. Cells were allowed to ferment at 30° C., 150 rpm until sugar exhaustion. CO2 production was monitored for the course of the fermentation and samples were taken for dry cell weight and HPLC analysis.
The samples were analyzed for cell mass using dry cell weight (Rice et al. (1980) Am. Soc. Brew. Chem. J. 38:142-45, which is incorporated herein by reference). For the fermentability analysis, samples were taken from the bioreactors using a 10 mL syringe. From each sample, cells in 2 mL culture samples were pelleted by centrifugation and the supernatant decanted and filtered through a 0.2 μm syringe filter. Each supernatant sample was diluted with 5 mM sulfuric acid. All dilutions were analyzed for glucose, xylose, xylitol, glycerol, and ethanol content on the Agilent 1100 Series Refractive Index Detector HPLC, while acetic and lactic acid were analyzed concurrently using an Agilent 1200 Series Variable Wavelength Detector HPLC. The column used for separation was the Varian Metacarb 87H Organic Acid column, maintained at 50° C. with a 5 mM sulfuric acid mobile phase at a flow rate of 0.6 mL/min. The unit was equipped with the 1100 Series Auto-sampler and Pumping System and controlled with the Chemstation software.

[2] = tested on: bacteria that proliferated in the industrial fermentation (contaminated yeast cream); test: Bacterial plate counts of contaminated yeast cream after acid and/or chlorine dioxide treatment (lab scale, Examples 1.1 and 1.2); conditions: for reduction of bacterial population: yeast cream first lowered to pH 2.0 with sulfuric acid, 5 minutes
Experimental: A yeast cream (also referred to herein as a “yeast slurry”) separated from the fermentation broth and contaminated with bacteria that proliferated in the industrial fermentation was treated at 20° C. with acid alone, chlorine dioxide alone or a combination of the two. In the acid treated condition, the pH was lowered from 5.0 to 2.0 with sulfuric acid. In the chlorine dioxide treated condition, a concentrated stock of chlorine dioxide in water (10,000 ppm) was prepared by passing a mixture of chlorine and nitrogen gas through sodium chlorite columns. The resulting ClO2 gas was sparged into 4 L of cold de-ionized water until the desired concentration was reached. This chlorine dioxide solution was used to treat the yeast cream.
In the combination treatment, the yeast cream was first lowered to pH 2.0 with sulfuric acid for 5 minutes and subsequently treated with the indicated bolus dose of chlorine dioxide for 5 minutes. In cases where the pH was lowered, the yeast cream was titrated back to 5.0 with sodium hydroxide after 10 minutes and prior to plating for bacterial enumeration. The duration of acid exposure was limited to 10 minutes to match the duration of exposure for the other treatments.
Bacterial colonies were enumerated via standard plate count methods. In order to selectively plate bacterial colonies and inhibit yeast growth, tryptic soy agar plates (15 g/L pancreatic digest of casein, 5 g/L enzymatic digest of soybean meal, 5 g/L sodium chloride and 15 g/L agar) with 100 mg/L cycloheximide were used. Samples were serially diluted into sterile saline (0.9% NaCl w/v) prior to plating.
Contaminated yeast cream obtained from the fermentation of Example 1.1 was titrated to pH 2.0 with sulfuric acid, treated with various concentrations of chlorine dioxide (0, 50, 100, 150 and 200 ppm) and plated to determine the bacterial reduction at pH 2.0 as outlined above, with the exception that the temperature of the treatment was 30° C. rather than 20° C. Bacterial populations were enumerated as previously described (Example 1.1). Bacterial populations were also enumerated on a control sample that was not subjected to chlorine dioxide or pH titration.

[3] = tested on: bacteria contaminating yeast cream; test: Bacterial plate counts of yeast cream in industrial scale operation before and after treatment
Experimental: A volume of 100,000 L whole fermentation broth was separated into a beer fraction and a yeast cream after completion of the fermentation. The yeast cream was concentrated to approximately 170 g dry cell weight/L. Prior to recycle into the next fermentation batch, the yeast cream contaminated with bacteria was treated at 20° C. with acid alone (batch 1) or treated with acid in combination with chlorine dioxide (batch 2). […] Chlorine dioxide was generated in concentrated form at a nominal concentration of 2700 ppm using a system commercially available from Pureline, Palatine, Ill. In the combination treatment, the acidity of the yeast cream was first lowered to pH 2.0 (as per Example 1.1) and subsequently treated at a bolus dose of 200 ppm chlorine dioxide with a residence time of approximately 45 seconds. After treatment, the yeast cream was fed back into the fermentation.

[4] = tested on: Saccharomyces cerevisiae yeast strain; test: Yeast cell counts (viability) of yeast cream after acid and/or chlorine dioxide treatment
Experimental: A sample of the yeast cream from Example 1.1 was plated for yeast growth after the treatments outlined therein. […] Selective yeast growth was enabled by serially diluting the cream in sterile saline (0.9% NaCl w/v) and plating on YM plates (10 g/L glucose, 5 g/L peptone, 3 g/L yeast extract, 3 g/L malt extract, 20 g/L agar) containing 34 mg/L chloramphenicol to inhibit bacterial growth.

Row | Compound | xylose consumption rate in lignocellulosic hydrolysate ([1]; combination acid-chlorine dioxide treatment (pH 2, 200 and 500 ppm) versus untreated control, change greater than with acid alone) | ethanol yield ([1]; combination acid-chlorine dioxide treatment versus untreated control, change greater than with acid alone) | reduction of contamination in yeast cream ([2]; 100 ppm chlorine dioxide, pH 2, 30° C.) | decrease of bacterial counts ([2]; 200 ppm chlorine dioxide, pH 2, 30° C.) | reduction of bacterial population ([2]; 200 ppm chlorine dioxide, 20° C.) | reduction of bacterial counts ([2]; 500 ppm chlorine dioxide, room temperature, as restated in Example 1.2 (see FIG. 2)) | reduction of bacterial population ([2]; 500 ppm chlorine dioxide, 20° C.) | effect of increasing chlorine dioxide dose on bacterial populations ([2]; pH 5.0, 0, 200 and 500 ppm, 20° C., no acid) | decrease of bacterial contamination counts ([3]; pH 2.0 with sulfuric acid then 200 ppm chlorine dioxide, about 45 seconds, 20° C., industrial scale (batch 2)) | effect of increasing chlorine dioxide dose on fermentation yeast populations ([4]; 0, 200, 500 ppm, regardless of the pH of the treatment (pH 5 or pH 2)) | viability of the fermentation yeast culture ([4]; combination of acid (pH 2) and chlorine dioxide 200 and 500 ppm, 20° C.) | ethanol yield ([1]; acid treatment alone (pH 2) versus untreated control) | xylose consumption rate in lignocellulosic hydrolysate ([1]; acid treatment alone (pH 2) versus untreated control, equivalent cell concentrations, 30° C.) | reduction of bacterial population by acid alone (pH control) ([2]; pH 2.0, no chlorine dioxide, 30° C.) | reduction of bacterial population by lowering the pH alone ([2]; pH 2.0 with sulfuric acid, 0 ppm chlorine dioxide, 20° C., 10 minutes) | reduction of bacterial contamination counts ([3]; sulfuric acid alone to pH 2.0, 20° C., industrial scale (batch 1)) | viability of the fermentation yeast culture ([4]; acid treatment alone, pH 2, 20° C.)
1 | [O][Cl+][O-] [chlorine dioxide] | relative decrease | increase | 10^2 CFU/mL | greater than 10^5 CFU/mL | 10^2 CFU/mL | 100 fold | 10^3 CFU/mL | negligible effect | 10^4 CFU/mL | negligible effect | not affected |  |  |  |  |  | 
2 | O=S(=O)(O)O [sulfuric acid] |  |  |  |  |  |  |  |  |  |  |  | increase | relative decrease | did not reduce | does not significantly reduce | 10^2 CFU/mL | not affected
